Where a name gives a salt, the structure may show the parent alone. Some results are limits rather than exact numbers.

The assay addresses T1, AR protein in VCaP cells (Homo sapiens, UniProt P10275).
T1 construct: endogenous in cells; host or cells: VCaP cells
T1 sequence (P10275 1-920): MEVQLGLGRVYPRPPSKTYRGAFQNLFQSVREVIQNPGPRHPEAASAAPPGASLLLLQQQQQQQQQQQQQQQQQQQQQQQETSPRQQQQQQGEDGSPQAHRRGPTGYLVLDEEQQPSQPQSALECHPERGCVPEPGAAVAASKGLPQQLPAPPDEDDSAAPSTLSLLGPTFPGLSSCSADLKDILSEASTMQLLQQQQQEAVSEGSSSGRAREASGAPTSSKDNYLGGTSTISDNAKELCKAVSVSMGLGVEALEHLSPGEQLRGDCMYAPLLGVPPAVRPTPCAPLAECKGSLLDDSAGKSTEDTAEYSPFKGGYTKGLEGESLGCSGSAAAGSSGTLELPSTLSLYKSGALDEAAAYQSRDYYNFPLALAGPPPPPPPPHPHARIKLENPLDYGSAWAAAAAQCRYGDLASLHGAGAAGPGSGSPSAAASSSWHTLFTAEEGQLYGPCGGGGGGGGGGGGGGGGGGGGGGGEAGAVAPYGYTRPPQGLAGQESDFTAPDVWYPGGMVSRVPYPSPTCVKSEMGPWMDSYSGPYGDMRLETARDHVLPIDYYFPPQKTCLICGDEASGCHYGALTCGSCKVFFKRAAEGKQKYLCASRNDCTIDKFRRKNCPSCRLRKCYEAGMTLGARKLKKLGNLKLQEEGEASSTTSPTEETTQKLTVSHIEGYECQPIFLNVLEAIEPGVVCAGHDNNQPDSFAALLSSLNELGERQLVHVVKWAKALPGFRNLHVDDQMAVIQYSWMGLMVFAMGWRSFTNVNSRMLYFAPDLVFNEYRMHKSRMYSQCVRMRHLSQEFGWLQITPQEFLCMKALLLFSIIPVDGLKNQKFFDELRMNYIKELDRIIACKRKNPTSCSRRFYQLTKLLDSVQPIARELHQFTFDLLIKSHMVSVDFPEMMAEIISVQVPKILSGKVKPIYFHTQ
In words: VCAP AR Degradation Assay. The format is cell-based. The conditions noted are these: 24 h, AR ELISA; for DC50: concentration at 50% of DMSO control (50% AR degradation); for Y: lowest measured AR level normalized to DMSO control. An outline of the steps: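 VCaP cells in DMEM with 8% FBS were treated 24 h at 37° C with a 10-point 1:3 series (top final 5 μM; 0.1% DMSO control). AR in lysates was measured by sandwich ELISA, normalized to DMSO as percent of control; DC50, EC50 and Ymin came from a four-parameter logistic fit.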

As for `C[C@@H]1CN(CCCO[C@H]2CC[C@H](N3C(=S)N(c4ccc(C#N)c(Cl)c4)C(=O)C3(C)C)CC2)C[C@H](C)N1CC(=O)Nc1cccc(NC2CCC(=O)NC2=O)c1` (stereo partly drawn) [Cmpd 9, 2-((2R,6S)-4-(3-((trans-4-(3-(3-Chloro-4-cyanophenyl)-5,5-dimethyl-4-oxo-2-thioxoimidazolidin-1-yl)cyclohexyl)oxy)propyl)-2,6-dimethylpiperazin-1-yl)-N-(3-((2,6-dioxopiperidin-3-yl)amino)phenyl)acetamide hydrochloride], the DC50 is ≤ 5 nM and the Y entry was “*** (25%<Y<50%)”.

Take `CC1(C)C(=O)N(c2cnc(C#N)c(C(F)(F)F)c2)C(=S)N1[C@H]1CC[C@H](OCCCN2CCN(CC(=O)Nc3cccc(NC4CCC(=O)NC4=O)c3)[C@@H](C(F)(F)F)C2)CC1` (stereo partly drawn) [Cmpd 28, 2-((R)-4-(3-(((trans)-4-(3-(6-cyano-5-(trifluoromethyl)pyridin-3-yl)-5,5-dimethyl-4-oxo-2-thioxoimidazolidin-1-yl)cyclohexyl)oxy)propyl)-2-(trifluoromethyl)piperazin-1-yl)-N-(3-((2,6-dioxopiperidin-3-yl)amino)phenyl)acetamide]: the half-maximal degradation concentration (DC50) is ≤ 5 nM and the Y entry was “* (0<Y≤15%)”.

Turning to `C[C@@H]1CN(CCO[C@H]2CC[C@H](N3C(=S)N(c4ccc(C#N)c(C(F)(F)F)c4)C(=O)C3(C)C)CC2)C[C@H](C)N1CC(=O)Nc1cccc(NC2CCC(=O)NC2=O)c1` (stereo partly drawn) [Cmpd 1, 2-((2R,6S)-4-(2-((trans-4-(3-(4-Cyano-3-(trifluoromethyl)phenyl)-5,5-dimethyl-4-oxo-2-thioxoimidazolidin-1-yl)cyclohexyl)oxy)ethyl)-2,6-dimethylpiperazin-1-yl)-N-(3-((2,6-dioxopiperidin-3-yl)amino)phenyl)acetamide], the half-maximal degradation concentration (DC50) lay in the range of 5 to 10 nM and the Y entry was “*** (25%<Y<50%)”.

Take `CC1(C)C(=O)N(c2cnc(C#N)c(C(F)(F)F)c2)C(=S)N1[C@H]1CC[C@H](CCCN2CCN(CC(=O)Nc3cccc(NC4CCC(=O)NC4=O)c3)[C@@H](C(F)(F)F)C2)CC1` (stereo partly drawn) [Cmpd 25, 2-((R)-4-(3-((trans)-4-(3-(6-Cyano-5-(trifluoromethyl)pyridin-3-yl)-5,5-dimethyl-4-oxo-2-thioxoimidazolidin-1-yl)cyclohexyl)propyl)-2-(trifluoromethyl)piperazin-1-yl)-N-(3-((2,6-dioxopiperidin-3-yl)amino)phenyl)acetamide]: the half-maximal degradation concentration (DC50) lay within 5 to 10 nM and the Y entry was “* (0<Y≤15%)”.

Turning to `C[C@@H]1CN(CCO[C@H]2CC[C@H](N3C(=S)N(c4cnc(C#N)c(C(F)(F)F)c4)C(=O)C3(C)C)CC2)C[C@H](C)N1CC(=O)Nc1cccc(N[C@H]2CCC(=O)NC2=O)c1` [Cmpd 47, 2-((2R,6S)-4-(2-(((trans)-4-(3-(6-Cyano-5-(trifluoromethyl)pyridin-3-yl)-5,5-dimethyl-4-oxo-2-thioxoimidazolidin-1-yl)cyclohexyl)oxy)ethyl)-2,6-dimethylpiperazin-1-yl)-N-(3-(((S)-2,6-dioxopiperidin-3-yl)amino)phenyl)acetamide], the DC50 was < 1000 nM and the Y entry is “* (0<Y≤15%)”.

Take `C[C@@H]1CN(CCC[C@H]2CC[C@H](N3C(=S)N(c4ccc(C#N)c(C(F)(F)F)c4)C(=O)C3(C)C)CC2)C[C@H](C)N1CC(=O)Nc1cccc(N[C@@H]2CCC(=O)NC2=O)c1` [Cmpd 6, 2-((2R,6S)-4-(3-(trans-4-(3-(4-Cyano-3-(trifluoromethyl)phenyl)-5,5-dimethyl-4-oxo-2-thioxoimidazolidin-1-yl)cyclohexyl)propyl)-2,6-dimethylpiperazin-1-yl)-N-(3-(((R)-2,6-dioxopiperidin-3-yl)amino)phenyl)acetamide hydrochloride]: the half-maximal degradation concentration (DC50) lay in the range of 5 to 10 nM and the Y result is on record as “* (0<Y≤15%)”.

For `C[C@@H]1CN(CCO[C@H]2CC[C@H](N3C(=S)N(c4ccc(C#N)c(S(F)(F)(F)(F)F)c4)C(=O)C3(C)C)CC2)C[C@H](C)N1CC(=O)Nc1cccc(NC2CCC(=O)NC2=O)c1` (stereo partly drawn) [Cmpd 7, 2-((2R,6S)-4-(2-((trans-4-(3-(4-Cyano-3-(pentafluoro-λ^6-sulfaneyl)phenyl)-5,5-dimethyl-4-oxo-2-thioxoimidazolidin-1-yl)cyclohexyl)oxy)ethyl)-2,6-dimethylpiperazin-1-yl)-N-(3-((2,6-dioxopiperidin-3-yl)amino)phenyl)acetamide hydrochloride], the half-maximal degradation concentration (DC50) fell in the range of 10 to 100 nM and the Y result is recorded as “*** (25%<Y<50%)”.

Regarding `CC1(C)C(=O)N(c2ccc(C#N)c(C(F)(F)F)c2)C(=S)N1[C@H]1CC[C@H](CCCN2CCN(CC(=O)Nc3cccc(NC4CCC(=O)NC4=O)c3)[C@@H](C(F)(F)F)C2)CC1` (stereo partly drawn) [Cmpd 29, 2-((R)-4-(3-((trans)-4-(3-(4-Cyano-3-(trifluoromethyl)phenyl)-5,5-dimethyl-4-oxo-2-thioxoimidazolidin-1-yl)cyclohexyl)propyl)-2-(trifluoromethyl)piperazin-1-yl)-N-(3-((2,6-dioxopiperidin-3-yl)amino)phenyl)acetamide], the half-maximal degradation concentration (DC50) lay in the range of 5 to 10 nM and the Y result is on record as “* (0<Y≤15%)”.

Take `CC1(C)C(=O)N(c2ccc(C#N)c(C(F)(F)F)c2)C(=S)N1[C@H]1CC[C@H](OCCN2CCN(CC(=O)Nc3cc(Cl)cc(NC4CCC(=O)NC4=O)c3)[C@@H](C(F)(F)F)C2)CC1` (stereo partly drawn) [Cmpd 27, N-(3-Chloro-5-((2,6-dioxopiperidin-3-yl)amino)phenyl)-2-((R)-4-(2-(((trans)-4-(3-(4-cyano-3-(trifluoromethyl)phenyl)-5,5-dimethyl-4-oxo-2-thioxoimidazolidin-1-yl)cyclohexyl)oxy)ethyl)-2-(trifluoromethyl)piperazin-1-yl)acetamide]: the DC50 lay within 10 to 100 nM and the Y entry was “* (0<Y≤15%)”.

For `C[C@@H]1CN(CCO[C@H]2CC[C@H](N3C(=S)N(c4cnc(C#N)c(C(F)(F)F)c4)C(=O)C3(C)C)CC2)C[C@H](C)N1CC(=O)Nc1cccc(N[C@@H]2CCC(=O)NC2=O)c1` [Cmpd 48, 2-((2R,6S)-4-(2-(((trans)-4-(3-(6-Cyano-5-(trifluoromethyl)pyridin-3-yl)-5,5-dimethyl-4-oxo-2-thioxoimidazolidin-1-yl)cyclohexyl)oxy)ethyl)-2,6-dimethylpiperazin-1-yl)-N-(3-(((R)-2,6-dioxopiperidin-3-yl)amino)phenyl)acetamide], the DC50 was < 1000 nM and the Y entry is recorded as “* (0<Y≤15%)”.

For the molecule `C[C@@H]1CN(CCC[C@H]2CC[C@H](N3C(=S)N(c4ccc(C#N)c(Cl)c4)C(=O)C3(C)C)CC2)C[C@H](C)N1CC(=O)Nc1cccc(NC2CCC(=O)NC2=O)c1` (stereo partly drawn) [Cmpd 14, 2-((2S,6R)-4-(3-(trans-4-(3-(3-Chloro-4-cyanophenyl)-5,5-dimethyl-4-oxo-2-thioxoimidazolidin-1-yl)cyclohexyl)propyl)-2,6-dimethylpiperazin-1-yl)-N-(3-((2,6-dioxopiperidin-3-yl)amino)phenyl)acetamide hydrochloride], the DC50 lay in the range of 10 to 100 nM and the Y result is “*** (25%<Y<50%)”.

Regarding `CC1(C)C(=O)N(c2ccc(C#N)c(C(F)(F)F)c2)C(=S)N1[C@H]1CC[C@H](OCCN2CCN(CC(=O)Nc3cc(F)cc(NC4CCC(=O)NC4=O)c3)[C@@H](C(F)(F)F)C2)CC1` (stereo partly drawn) [Cmpd 23, 2-((R)-4-(2-(((trans)-4-(3-(4-Cyano-3-(trifluoromethyl)phenyl)-5,5-dimethyl-4-oxo-2-thioxoimidazolidin-1-yl)cyclohexyl)oxy)ethyl)-2-(trifluoromethyl)piperazin-1-yl)-N-(3-((2,6-dioxopiperidin-3-yl)amino)-5-fluorophenyl)acetamide], the DC50 is 5 to 10 nM and the Y result is given as “* (0<Y≤15%)”.

For orientation: DC50 means the concentration giving 50% degradation. Low values mean degradation at low concentration, high ones degradation only at high concentration.

(Values after patent US12103920B2, “Cereblon binding compounds, compositions thereof, and methods of treatment therewith” (Celgene Corporation, priority 2020, dated 2024).)
